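Growth conditions: 96-well plates. Treatment: test compound, 48 hours, 5 concentrations. Analysis: linear interpolation between bracketing concentrations; unreached endpoints set to highest concentration. At the TGI there is no net growth.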 Where a SMILES comes first, the peptide text is derived from it. [ ]: non-standard residue; d: D form. The star is where a group is joined. ξ: configuration not given here. ξF = NC(Cc1ccccc1)C(=O)O; Cbz = O=C(OCc1ccccc1)*
Key:
Experiment in all cases: growth of human tumour cells (NCI), 48 h
CAKI-1 renal = tested on: CAKI-1 renal
HCC-2998 colon = tested on: HCC-2998 colon
K-562 leukemia = tested on: K-562 leukemia
LOX IMVI melanoma = tested on: LOX IMVI melanoma
M14 melanoma = tested on: M14 melanoma
NCI-H226 lung = tested on: NCI-H226 lung
RPMI-8226 leukemia = tested on: RPMI-8226 leukemia
SF-295 CNS = tested on: SF-295 CNS
SF-539 CNS = tested on: SF-539 CNS
T-47D breast = tested on: T-47D breast
UO-31 renal = tested on: UO-31 renal

SMILES | TGI (CAKI-1 renal) | TGI (HCC-2998 colon) | TGI (K-562 leukemia) | TGI (LOX IMVI melanoma) | TGI (M14 melanoma) | TGI (NCI-H226 lung) | TGI (RPMI-8226 leukemia) | TGI (SF-295 CNS) | TGI (SF-539 CNS) | TGI (T-47D breast) | TGI (UO-31 renal)
Oc1c(N2CCCCC2)cc(-c2cc(N3CCCCC3)c(O)c3ccccc23)c2ccccc12 | > 100 µM | > 100 µM | > 100 µM | 73.2 µM | 32 µM | > 100 µM | > 100 µM | > 100 µM | 81.8 µM | > 100 µM | > 100 µM
O=C(O)CCCc1ccc2c(c1)CC1(C2)Cc2cc3c(cc2C1)CCCC3 | – | 41.4 µM | 25.9 µM | 32.7 µM | 30.9 µM | 61.8 µM | 53.2 µM | 56.9 µM | 3.82 µM | > 100 µM | 34.2 µM
COC1(OC)c2occc2C(=N)c2ccc(=O)oc21 | > 100 µM | > 100 µM | > 100 µM | > 100 µM | > 100 µM | > 100 µM | > 100 µM | > 100 µM | > 100 µM | > 100 µM | > 100 µM
C[C@@H]1CC[C@]2(C)C3(C)CC[C@]2(OC3=O)[C@@]12CC(c1ccoc1)OC2=O (some centres not stated) | 72.6 µM | > 100 µM | 76.3 µM | 43.6 µM | 57.2 µM | > 100 µM | 77.5 µM | > 100 µM | 59.2 µM | > 100 µM | 45.5 µM
CC(=O)NC1C(OCC(=O)NCCNc2ccc([N+](=O)[O-])c3[nH]c4ccccc4c(=O)c23)C(O)C(CO)OC1(C)OCc1ccccc1 (configuration not stated) | > 100 µM | > 100 µM | > 100 µM | > 100 µM | > 100 µM | > 100 µM | > 100 µM | > 100 µM | > 100 µM | > 100 µM | > 100 µM
CCOC(=O)CNC(=O)C(Cc1ccccc1)NC(=O)OCc1ccccc1 (configuration not stated) (Cbz-[ξF]-Gly-OEt) | – | > 100 µM | > 100 µM | > 100 µM | > 100 µM | > 100 µM | > 100 µM | > 100 µM | – | > 100 µM | > 100 µM
CCCCCCCCCCCCCCCCCCNc1ccn(C2OC(COP(=O)(O)OCC3OC(n4ccc(N)nc4=O)C(O)C3O)C(O)C2O)c(=O)n1 (configuration not stated) | > 100 µM | > 100 µM | > 100 µM | 49.4 µM | > 100 µM | > 100 µM | > 100 µM | > 100 µM | > 100 µM | > 100 µM | > 100 µM
COC1(OC)CCc2c(sc3ncnc(Nc4cccc(Br)c4)c23)C1 | > 100 µM | > 100 µM | > 100 µM | > 100 µM | > 100 µM | > 100 µM | 59.5 µM | > 100 µM | > 100 µM | 65.6 µM | > 100 µM
COc1ccc(/C(Nc2ccccc2)=C(\CCl)c2ccccc2)cc1OC | > 100 µM | > 100 µM | 64.9 µM | > 100 µM | > 100 µM | > 100 µM | > 100 µM | > 100 µM | > 100 µM | > 100 µM | > 100 µM
CCOC(=O)c1cn(CC)c(=O)n2c1nc1ccccc12 | > 100 µM | > 100 µM | > 100 µM | 84.1 µM | > 100 µM | > 100 µM | 75.1 µM | > 100 µM | > 100 µM | > 100 µM | 10.2 µM

Reference: PubChem BioAssay (NCI)
